According to patent US11076595B2, “1-(n,n-disubstituted carbamoyl) 4-(substituted sulfonyl)triazolin-5-one derivative, 4-(n,n-disubstituted carbamoyl) 1-(substituted sulfonyl)triazolin-5-one derivative, and herbicide containing said derivative as active ingredient” (HOKKO CHEMICAL INDUSTRY CO., LTD., priority 2017, dated 2021):

Assays:
Type in all cases: in vivo
Echinochloa crus-galli [1] = test: Test Example 12: herbicidal effect test by treatment during growing period in paddy field; conditions: 120 g/10a; treatment seven days after sowing in flooded paddy pot; assessed 14 days after treatment
Procedure, shortened: (§1)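 Seeds (30 per species) are sown shallowly into fertilized, puddled paddy soil kept under ~3 cm of water in a greenhouse. One week later, compound formulated as an emulsifiable concentrate is applied dropwise to the water at 120 g a.i./10 are. After 14 days, dry weights give percent suppression against untreated controls.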

Lindernia pyxidaria [2] = test: as above; conditions: 120 g/10a; treatment seven days after sowing in flooded paddy pot; assessed 14 days after treatment
Procedure, shortened: as §1

Monochoria vaginalis [3] = test: as above; conditions: 120 g/10a; treatment seven days after sowing in flooded paddy pot; assessed 14 days after treatment
Procedure, shortened: as §1

Scirpus juncoides [4] = test: as above; conditions: 120 g/10a; treatment seven days after sowing in flooded paddy pot; assessed 14 days after treatment
Procedure, shortened: as §1

Echinochloa crus-galli [5] = test: Test Example 11: herbicidal effect test by soil treatment in paddy field; conditions: 120 g/10a active ingredient, 14 days after treatment
Procedure, shortened: (§2)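 Pre-emergence flooded-paddy test: the water-diluted emulsifiable concentrate, 120 g active ingredient per 10 are, was dripped into pots immediately after seeding, with water held at about 3 cm. Two replicate pots per rate; 14 days after treatment, plant dry weight versus untreated pots gave the weed suppression rate.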

Lindernia pyxidaria [6] = test: as above; conditions: 120 g/10a active ingredient, 14 days after treatment
Procedure, shortened: as §2

Monochoria vaginalis [7] = test: as above; conditions: 120 g/10a active ingredient, 14 days after treatment
Procedure, shortened: as §2

Scirpus juncoides [8] = test: as above; conditions: 120 g/10a active ingredient, 14 days after treatment
Procedure, shortened: as §2

| Structure (SMILES) | Weed suppression rate (%) Echinochloa crus-galli (Echinochloa crus-galli [1]) | Weed suppression rate (%) Lindemia pyxidaria (Lindernia pyxidaria [2]) | Weed suppression rate (%) Monochoria vaginalis (Monochoria vaginalis [3]) | Weed suppression rate (%) Scirpus juncoides (Scirpus juncoides [4]) | Weed suppression rate (%) Echinochloa crus-galli (Echinochloa crus-galli [5]) | Weed suppression rate (%) Lindemia pyxidaria (Lindernia pyxidaria [6]) | Weed suppression rate (%) Monochoria vaginalis (Monochoria vaginalis [7]) | Weed suppression rate (%) Scirpus juncoides (Scirpus juncoides [8]) |
| --- | --- | --- | --- | --- | --- | --- | --- | --- |
| CCS(=O)(=O)n1ncn(C(=O)N(C)c2ccc(F)cc2F)c1=O [Compound 11-1126] | 100% | 70% | 70% | 100% | 100% | 90% | 70% | 100% |
| CC(C)S(=O)(=O)n1ncn(C(=O)N(C)c2ccc(F)cc2F)c1=O [Compound 11-1127] | 100% | 70% | 70% | 100% | 100% | 80% | 70% | 80% |
| Cc1ccc(S(=O)(=O)n2ncn(C(=O)N(C)c3ccc(F)cc3F)c2=O)cc1 [Compound 11-1131] | 100% | 70% | 90% | 80% | 100% | 100% | 70% | 100% |
| CN(C(=O)n1cnn(S(=O)(=O)c2ccc(F)cc2)c1=O)c1ccc(F)cc1F [Compound 11-1137] | 100% | 70% | 80% | 100% | 100% | 90% | 80% | 100% |
| Cc1cc(C)c(S(=O)(=O)n2ncn(C(=O)N(C)c3ccc(F)cc3F)c2=O)c(C)c1 [Compound 11-1140] | 100% | 80% | 90% | 100% | 100% | 100% | 90% | 100% |
| CN(C(=O)n1cnn(S(=O)(=O)c2cccs2)c1=O)c1ccc(F)cc1F [Compound 11-1147] | 100% | 70% | 90% | 100% | 100% | 100% | 70% | 70% |
| COc1ccc(S(=O)(=O)n2ncn(C(=O)N(c3c(F)cccc3F)C(C)C)c2=O)cc1 [Compound 11-1151] | 100% | 80% | 90% | 90% | 100% | 100% | 70% | 80% |
| COc1ccc(S(=O)(=O)n2ncn(C(=O)N(c3ccc(F)c(F)c3F)C(C)C)c2=O)cc1 [Compound 11-1153] | 100% | 70% | 100% | 90% | 100% | 100% | 90% | 60% |
| O=C(N(CC(F)(F)F)c1ccc(F)cc1F)n1cnn(S(=O)(=O)C2CCCCC2)c1=O [Compound 11-1156] | 90% | 90% | 60% | 30% | 70% | 80% | 30% | 30% |
